According to patent US20260018245A1, “SYSTEMS AND METHODS FOR IDENTIFYING AND TARGETING COLLATERAL LETHAL GENES” (The Regents of the University of Michigan, priority 2022, published 2026):

What was measured:
Format in all cases: cell-based
[1] = test system: parental ovarian cancer lines and isogenic SKOV3 lines; experiment: Viability with MTHFD2 inhibitor and uridine supplementation; conditions: uridine 50 μM supplementation
Method: FIG. 15 Investigating metabolic consequence of Complex III impairment and activity of paralogous pathways other than oxidative MTHFD2. (a) Effect of MTHFD2 inhibitor ([…]) and uridine (50 μM) supplementation on viability of parental ovarian cancer lines that are UQCR11—intact (SKOV3) or UQCR11-null (HeyA8, OVCAR8, CAOV3). Data are representative of two independent experiments and presented as mean±s.d. (n=6). Data analyzed with one-way ANOVA with Tukey's correction for multiple comparisons. (b) Effect of MTHFD2 inhibitor and uridine supplementation on viability of isogenic SKOV3 lines expressing shScramble or shUQCR11. […] Data analyzed with one-way ANOVA with Tukey's correction for multiple comparisons. […] (n=6) and analyzed using two-tailed Student's t-test. (d) mRNA expression of NNT, IDH2, IDH3A measured via qRT-PCR after knocking down with shNNT, shIDH2, and shIDH3A, relative to scramble shRNA (shScr), verifying knockdown efficiency in SKOV3 and OVCAR8 cell-lines. […] Data analyzed using unpaired two-tailed Student's t-test. […] Data are analyzed using ordinary one-way ANOVA with multiple comparisons. […] Loss of viability calculated by comparing respective viability in vehicle control-treated cells to MTHFD2 inhibitor-treated cells. […] (n=6) and analyzed using ordinary one-way ANOVA with Dunnett's correction for multiple comparisons. Error bars are calculated using propagation of error principles.

[2] = test system: oxidative MTHFD2 flux in SKOV3 cells; experiment: Oxidative MTHFD2 flux by 4-[2H]-glucose tracing; conditions: SKOV3, increasing rotenone doses (0-1,000 nM), 8 h
Method: (§1) FIG. 4 Dynamic flux analysis with parallel tracers to quantify oxidative MTHFD2 flux. a, Oxidative MTHFD2 flux and percentage decrease in OCRfollowing MTHFD2 inhibition in SKOV3 cells treated with rotenone (0, 31, 62, 125, 250, 500 or 1,000 nM) and MTHFD2 inhibitor (0 or 60 μM). Oxidative MTHFD2 flux is proportional to [2H1]-serine/[2H1]-NADH enrichment in cells cultured with 4-[2H]-glucose for 8 h. Percentage decrease in OCR is estimated in SKOV3 cells treated with 60 μM MTHFD2i compared with 0 μM MTHFD2i. Oxidative flux data are combined from two independent experiments (n=4), with mean±s.d. estimated using error propagation. […] (n=6) and analysed using two-tailed Welch's t-test. e, Ratio of [2H2]-serine/[2H]-NADH enrichment in SKOV3 and OVCAR8 cells at 2 h after combined tracer introduction of 4-[2H]-glucose and [2H]-formate, representing the normalized contribution of [2H]-NADH to [2H2]-serine via oxidative MTHFD2 flux. Data combined from two independent experiments (n=6), with mean±s.d. estimated using error propagation and analysed by two-tailed Welch's t-test. f, [2H2]-serine enrichment in SKOV3 cells expressing shScramble or shUQCR11 at 2 h after combined tracer introduction of 4-[2H]-glucose and [2H]-formate. […] (n=5) and analysed using one-tailed non-parametric Mann-Whitney test. […]

[3] = test system: reductive MTHFD2 flux in SKOV3 cells; experiment: Reductive MTHFD2 flux by 2,3,3-[2H]-serine tracing; conditions: SKOV3, increasing rotenone doses, 8 h
Method: as §1

SKOV3 cells = experiment: Oxygen consumption rate (OCR) measurement; conditions: SKOV3, increasing rotenone concentrations
Method: FIG. 4 Dynamic flux analysis with parallel tracers to quantify oxidative MTHFD2 flux. a, Oxidative MTHFD2 flux and percentage decrease in OCRfollowing MTHFD2 inhibition in SKOV3 cells treated with rotenone (0, 31, 62, 125, 250, 500 or 1,000 nM) and MTHFD2 inhibitor (0 or 60 μM). Oxidative MTHFD2 flux is proportional to [2H1]-serine/[2H1]-NADH enrichment in cells cultured with 4-[2H]-glucose for 8 h. Percentage decrease in OCR is estimated in SKOV3 cells treated with 60 μM MTHFD2i compared with 0 μM MTHFD2i. Oxidative flux data are combined from two independent experiments (n=4), with mean±s.d. estimated using error propagation. OCR data are representative of two independent experiments and presented as mean±s.d. estimated using error propagation (n=5). b, Reductive MTHFD2 flux and basal OCR in SKOV3 cells treated with rotenone (0, 31, 62, 125, 250 or 1,000 nM) and MTHFD2 inhibitor (0 or 60 μM). Reductive MTHFD2 flux is proportional to [2H1]-NADH in cells cultured with 2,3,3-[2H]-serine for 8 h. OCR data are representative of two independent experiments and presented as mean±s.e.m. (n=5). c, Schematic of combination tracer experiment with 4-[2H]-glucose and [2H]-formate to track oxidative MTHFD2 flux. […] (n=6) and analysed using two-tailed Welch's t-test. e, Ratio of [2H2]-serine/[2H]-NADH enrichment in SKOV3 and OVCAR8 cells at 2 h after combined tracer introduction of 4-[2H]-glucose and [2H]-formate, representing the normalized contribution of [2H]-NADH to [2H2]-serine via oxidative MTHFD2 flux. Data combined from two independent experiments (n=6), with mean±s.d. estimated using error propagation and analysed by two-tailed Welch's t-test. f, [2H2]-serine enrichment in SKOV3 cells expressing shScramble or shUQCR11 at 2 h after combined tracer introduction of 4-[2H]-glucose and [2H]-formate. […] (n=5) and analysed using one-tailed non-parametric Mann-Whitney test.
OCR measurement. […] Live OCR was measured for up to 16 h after attaching the lid.
Mito stress test with the Seahorse analyser. Mitochondrial OCR was measured using a Seahorse XFe96 analyser (Agilent Technologies). […]

Row | SMILES | rescue of cells from MTHFD2 inhibition [1] | oxidative MTHFD2 flux [2] | reductive MTHFD2 flux [3] | basal OCR (SKOV3 cells)
1 | O=c1ccn([C@@H]2O[C@H](CO)[C@@H](O)[C@H]2O)c(=O)[nH]1 [uridine] | unable to rescue | – | – | –
2 | C=C(C)[C@H]1Cc2c(ccc3c2O[C@@H]2COc4cc(OC)c(OC)cc4[C@@H]2C3=O)O1 [rotenone] | – | first increased with increasing, yet low, rotenone doses but returned to original levels as doses were further increased | modest increase at low rotenone doses, which became most pronounced at the highest doses | monotonic decrease
